According to US10168342B2, “Lipid probes and uses thereof” (THE SCRIPPS RESEARCH INSTITUTE, priority 2015, dated 2019):
Where two headings read alike, the source gives them in different places.

Legend:
[1] = target: T1, AEA-DA lipid probe targets in Neuro2a cells (Mus musculus, UniProt P35564)
T1 sequence (P35564 21-591): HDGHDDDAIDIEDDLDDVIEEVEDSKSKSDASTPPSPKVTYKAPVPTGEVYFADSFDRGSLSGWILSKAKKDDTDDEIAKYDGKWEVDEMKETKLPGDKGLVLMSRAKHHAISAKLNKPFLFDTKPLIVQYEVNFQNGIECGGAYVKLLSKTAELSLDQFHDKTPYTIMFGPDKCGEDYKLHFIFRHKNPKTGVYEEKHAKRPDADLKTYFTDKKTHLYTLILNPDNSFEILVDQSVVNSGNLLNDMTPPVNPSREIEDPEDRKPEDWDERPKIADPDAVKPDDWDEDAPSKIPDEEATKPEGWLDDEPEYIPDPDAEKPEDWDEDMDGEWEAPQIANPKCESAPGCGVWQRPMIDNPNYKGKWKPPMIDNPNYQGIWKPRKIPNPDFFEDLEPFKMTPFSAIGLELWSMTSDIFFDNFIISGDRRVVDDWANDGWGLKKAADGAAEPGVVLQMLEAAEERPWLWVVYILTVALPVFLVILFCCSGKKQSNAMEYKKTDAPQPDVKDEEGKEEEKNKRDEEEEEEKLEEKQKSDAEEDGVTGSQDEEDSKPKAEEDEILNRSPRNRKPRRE

[2] = target: AEA-DA lipid probe targets in Neuro2a cells (Mus musculus, UniProt P36536)
AEA-DA lipid probe targets in Neuro2a cells (Mus musculus, UniProt P36536), sequence (P36536 whole entry): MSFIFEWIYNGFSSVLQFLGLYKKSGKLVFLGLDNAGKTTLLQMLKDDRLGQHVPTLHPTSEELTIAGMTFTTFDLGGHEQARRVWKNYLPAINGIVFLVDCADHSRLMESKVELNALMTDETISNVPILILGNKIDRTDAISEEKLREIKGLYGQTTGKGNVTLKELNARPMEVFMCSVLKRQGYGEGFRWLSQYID

[3] = target: T2, AEA-DA lipid probe targets in Neuro2a cells (Mus musculus, UniProt P42125)
T2 sequence (P42125 29-289): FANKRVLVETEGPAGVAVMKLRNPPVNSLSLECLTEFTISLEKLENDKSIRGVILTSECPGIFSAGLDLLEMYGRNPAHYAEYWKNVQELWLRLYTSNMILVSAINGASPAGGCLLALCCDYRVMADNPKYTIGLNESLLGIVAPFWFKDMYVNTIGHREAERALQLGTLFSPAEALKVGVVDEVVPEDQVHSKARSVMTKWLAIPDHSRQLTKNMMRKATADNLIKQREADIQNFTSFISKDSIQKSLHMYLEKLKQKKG

[4] = target: T3, AEA-DA lipid probe targets in Neuro2a cells (Mus musculus, UniProt P97311)
T3 sequence (P97311 1-821): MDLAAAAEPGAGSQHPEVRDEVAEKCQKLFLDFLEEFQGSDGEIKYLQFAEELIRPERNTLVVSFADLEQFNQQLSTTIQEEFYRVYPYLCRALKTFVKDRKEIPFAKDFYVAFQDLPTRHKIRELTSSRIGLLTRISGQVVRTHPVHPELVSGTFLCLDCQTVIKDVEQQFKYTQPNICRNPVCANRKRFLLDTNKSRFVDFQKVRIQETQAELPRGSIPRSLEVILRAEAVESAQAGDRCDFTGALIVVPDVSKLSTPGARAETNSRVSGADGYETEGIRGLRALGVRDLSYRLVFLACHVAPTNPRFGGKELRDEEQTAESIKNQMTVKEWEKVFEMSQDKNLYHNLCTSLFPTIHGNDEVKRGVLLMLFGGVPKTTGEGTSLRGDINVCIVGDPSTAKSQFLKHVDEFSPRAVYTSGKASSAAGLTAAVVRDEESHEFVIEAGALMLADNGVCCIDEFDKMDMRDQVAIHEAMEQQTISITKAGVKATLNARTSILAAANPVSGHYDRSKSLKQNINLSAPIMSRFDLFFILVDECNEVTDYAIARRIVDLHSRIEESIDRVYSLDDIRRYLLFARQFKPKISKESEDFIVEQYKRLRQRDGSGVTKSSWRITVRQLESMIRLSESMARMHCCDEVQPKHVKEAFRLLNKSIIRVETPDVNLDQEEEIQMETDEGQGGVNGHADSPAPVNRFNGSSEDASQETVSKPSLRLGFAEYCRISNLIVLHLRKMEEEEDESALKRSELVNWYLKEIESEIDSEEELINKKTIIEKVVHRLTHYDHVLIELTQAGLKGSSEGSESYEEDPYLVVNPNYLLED

[5] = target: T4, AEA-DA lipid probe targets in Neuro2a cells (Mus musculus, UniProt Q99LR1)
T4 sequence (Q99LR1 1-398): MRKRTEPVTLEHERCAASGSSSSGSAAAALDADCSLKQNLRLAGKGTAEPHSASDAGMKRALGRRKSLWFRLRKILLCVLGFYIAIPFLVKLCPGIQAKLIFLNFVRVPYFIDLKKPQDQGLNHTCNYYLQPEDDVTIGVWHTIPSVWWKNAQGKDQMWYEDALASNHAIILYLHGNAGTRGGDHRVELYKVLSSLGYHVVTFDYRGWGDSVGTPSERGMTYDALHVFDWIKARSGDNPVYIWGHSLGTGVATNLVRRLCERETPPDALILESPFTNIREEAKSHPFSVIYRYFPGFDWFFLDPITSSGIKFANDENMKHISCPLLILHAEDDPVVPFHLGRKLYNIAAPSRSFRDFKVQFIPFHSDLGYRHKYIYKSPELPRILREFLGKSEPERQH

[6] = target: AEA-DA lipid probe targets in Neuro2a cells (Mus musculus, UniProt Q9DCH4)
AEA-DA lipid probe targets in Neuro2a cells (Mus musculus, UniProt Q9DCH4), sequence (Q9DCH4 whole entry): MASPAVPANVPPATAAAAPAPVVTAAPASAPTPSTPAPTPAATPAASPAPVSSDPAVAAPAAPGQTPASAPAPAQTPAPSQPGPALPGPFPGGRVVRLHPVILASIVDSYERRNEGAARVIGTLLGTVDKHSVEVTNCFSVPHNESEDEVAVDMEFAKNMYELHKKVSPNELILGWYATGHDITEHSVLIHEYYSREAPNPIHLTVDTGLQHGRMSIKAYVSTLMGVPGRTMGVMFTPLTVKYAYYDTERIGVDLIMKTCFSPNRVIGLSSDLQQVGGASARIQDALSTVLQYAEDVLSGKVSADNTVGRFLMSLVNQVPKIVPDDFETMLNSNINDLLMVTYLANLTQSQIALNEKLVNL

[7] = target: T5, AEA-DA lipid probe targets in Neuro2a cells (Mus musculus, UniProt Q9Z0R9); settings: for SILAC ratio, FADS2 (Q9Z0R9): Neuro2a cells, AEA-DA probe
T5 sequence (Q9Z0R9 1-444): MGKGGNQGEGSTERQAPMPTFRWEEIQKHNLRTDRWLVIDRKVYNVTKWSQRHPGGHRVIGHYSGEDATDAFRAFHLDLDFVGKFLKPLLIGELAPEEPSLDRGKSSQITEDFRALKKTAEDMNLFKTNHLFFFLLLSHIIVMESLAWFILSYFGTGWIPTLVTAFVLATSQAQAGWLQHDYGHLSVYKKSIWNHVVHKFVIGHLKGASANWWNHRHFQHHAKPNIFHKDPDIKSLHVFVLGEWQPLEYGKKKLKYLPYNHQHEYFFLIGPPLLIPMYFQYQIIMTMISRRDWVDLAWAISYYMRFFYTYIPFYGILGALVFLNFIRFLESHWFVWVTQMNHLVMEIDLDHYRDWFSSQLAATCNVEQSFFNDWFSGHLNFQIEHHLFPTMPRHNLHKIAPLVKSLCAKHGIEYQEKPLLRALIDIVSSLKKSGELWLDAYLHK

Structure (SMILES)	SILAC ratio, Canx ([1]; competitor 25 μM)	SILAC ratio, Sar1a ([2]; competitor 25 μM)	SILAC ratio, Eci1 ([3]; competitor 25 μM)	SILAC ratio Mcm6 ([4]; competitor 25 μM)	SILAC ratio, Abhd12 ([5]; competitor 25 μM)	SILAC ratio Eif3f ([6]; competitor 25 μM)	SILAC ratio, FADS2 (Q9Z0R9) ([7]; competitor 25 μM)	SILAC ratio, Fads2 ([7]; competitor 25 μM)	also measured
O=C(/C=C/c1cccnc1)NCCCCC1CCN(C(=O)c2ccccc2)CC1 [FK-866, reference compound]	1.2	1.0	1.2	1.1	1.0	1.3	1.2	1.2	
CCCCC/C=C\C/C=C\C/C=C\C/C=C\CCCC(=O)NCCO [AEA, anandamide, reference compound]									SILAC ratio, Canx ([1]; competitor 200 μM): 1.6; SILAC ratio, Eci1 ([3]; competitor 200 μM): 2.0; SILAC ratio Mcm6 ([4]; competitor 200 μM): 1.3; SILAC ratio, Abhd12 ([5]; competitor 200 μM): 1.8; SILAC ratio Eif3f ([6]; competitor 200 μM): 1.4; SILAC ratio, FADS2 (Q9Z0R9) ([7]; competitor 200 μM): 2.5; SILAC ratio, Fads2 ([7]; competitor 200 μM): 2.5
CN1CCN(C(=O)c2c(-c3ccccc3)c3cc([N+](=O)[O-])ccc3n2C)CC1 [KML110, (1-Methyl-5-nitro-3-phenyl-1H-indol-2-yl)(4-methylpiperazin-1-yl)methanone]	1.6	1.4	1.5	2.0	1.2	1.3		1.4	
C=CCN(C)CCCCCCOc1ccc(C(=O)c2ccc(Br)cc2)c(F)c1 [Ro 48-8071, reference compound]	1.2	1.1	0.9	0.8	1.0	0.9	1.2	1.2	
CN1CCN(C(=O)c2[nH]c3ccc([N+](=O)[O-])cc3c2-c2ccccc2)CC1 [MJN228, (4-Methylpiperazin-1-yl)(5-nitro-3-phenyl-1H-indol-2-yl)methanone]	1.7	1.7	2.0	1.4	1.2	1.0	1.8	1.8	SILAC ratio, Canx ([1]; competitor 10 μM): 1.3; SILAC ratio, Canx ([1]; competitor 50 μM): 1.8; SILAC ratio, Canx ([1]; competitor 100 μM): 2.6; SILAC ratio, Sar1a ([2]; competitor 10 μM): 1.3; SILAC ratio, Sar1a ([2]; competitor 50 μM): 1.7; SILAC ratio, Sar1a ([2]; competitor 100 μM): 2.2; SILAC ratio, Eci1 ([3]; competitor 10 μM): 1.4; SILAC ratio, Eci1 ([3]; competitor 50 μM): 2.4; SILAC ratio, Eci1 ([3]; competitor 100 μM): 3.8; SILAC ratio Mcm6 ([4]; competitor 10 μM): 1.2; SILAC ratio Mcm6 ([4]; competitor 50 μM): 1.0; SILAC ratio Mcm6 ([4]; competitor 100 μM): 1.6; SILAC ratio, Abhd12 ([5]; competitor 10 μM): 1.2; SILAC ratio, Abhd12 ([5]; competitor 50 μM): 1.2; SILAC ratio, Abhd12 ([5]; competitor 100 μM): 1.4; SILAC ratio Eif3f ([6]; competitor 10 μM): 1.0; SILAC ratio Eif3f ([6]; competitor 100 μM): 0.9; SILAC ratio, Fads2 ([7]; competitor 10 μM): 1.3; SILAC ratio, Fads2 ([7]; competitor 50 μM): 1.9; SILAC ratio, Fads2 ([7]; competitor 100 μM): 2.8
